# According to ChEMBL document CHEMBL5325463, “Novel spiroindoline quinazolinedione derivatives as anticancer agents and potential FLT3 kinase inhibitors” (Bioorg Med Chem, 2023):
# Assays:
# [1] = system: EBC-1; test: cells; settings: Homo sapiens, EBC-1, 72 h
# Description: Antiproliferative activity against human EBC-1 cells incubated for 3 days by MTT assay
# [2] = system: A549; test: cells; settings: Homo sapiens, A549, 72 h
# Description: Antiproliferative activity against human A549 cells incubated for 3 days by MTT assay
# [3] = system: HT-29; test: cells; settings: Homo sapiens, HT-29, 72 h
# Description: Antiproliferative activity against human HT-29 cells incubated for 3 days by MTT assay
# [4] = system: K562; test: cells; settings: Homo sapiens, K562, 72 h
# Description: Antiproliferative activity against human K562 cells incubated for 3 days by MTT assay
# [5] = system: K562; test: Induction of cell cycle arrest in human K562 cells assessed as accumulation at sub G1 phase at 10 uM incubated for 48 hrs by Rnase/PI staining based flow cytometry (reference value: 0.92 +/- 0.12); assay type: functional
# [6] = system: K562; test: Induction of cell cycle arrest in human K562 cells assessed as accumulation at G0/G1 phase at 10 uM incubated for 48 hrs by Rnase/PI staining based flow cytometry (reference value: 57.34 +/- 3.14); assay type: functional
# [7] = system: K562; test: Induction of cell cycle arrest in human K562 cells assessed as accumulation at S phase at 10 uM incubated for 48 hrs by Rnase/PI staining based flow cytometry (reference value: 17.95 +/- 3.42); assay type: functional
# [8] = system: K562; test: Induction of cell cycle arrest in human K562 cells assessed as accumulation at G2/M phase at 10 uM incubated for 48 hrs by Rnase/PI staining based flow cytometry (reference value: 23.78 +/- 6.09); assay type: functional
# [9] = system: K562; test: Induction of cell cycle arrest in human K562 cells assessed as accumulation at sub G1 phase at 50 uM incubated for 48 hrs by Rnase/PI staining based flow cytometry (reference value: 0.92 +/- 0.12); assay type: functional
# [10] = system: K562; test: Induction of cell cycle arrest in human K562 cells assessed as accumulation at G0/G1 phase at 50 uM incubated for 48 hrs by Rnase/PI staining based flow cytometry (reference value: 57.34 +/- 3.14); assay type: functional
# [11] = system: K562; test: Induction of cell cycle arrest in human K562 cells assessed as accumulation at S phase at 50 uM incubated for 48 hrs by Rnase/PI staining based flow cytometry (reference value: 17.95 +/- 3.42); assay type: functional
# [12] = system: K562; test: Induction of cell cycle arrest in human K562 cells assessed as accumulation at G2/M phase at 50 uM incubated for 48 hrs by Rnase/PI staining based flow cytometry (reference value: 23.78 +/- 6.09); assay type: functional
# [13] = molecular target: Mast/stem cell growth factor receptor Kit (Homo sapiens) (UniProt P10721); test: Inhibition of KIT (unknown origin) at 10 uM by radiometric assay relative to control
# [14] = molecular target: Vascular endothelial growth factor receptor 2 (Homo sapiens) (UniProt P35968); test: Inhibition of KDR (unknown origin) at 10 uM by radiometric assay relative to control
# [15] = molecular target: Mitogen-activated protein kinase 3 (Homo sapiens) (UniProt P27361); test: Inhibition of MAPK3 (unknown origin) at 10 uM by radiometric assay relative to control
# [16] = molecular target: Dual specificity mitogen-activated protein kinase kinase 1 (Homo sapiens) (UniProt Q02750); test: Inhibition of MAP2K1 (unknown origin) at 10 uM by radiometric assay relative to control
# [17] = molecular target: Hepatocyte growth factor receptor (Homo sapiens) (UniProt P08581); test: Inhibition of MET (unknown origin) at 10 uM by radiometric assay relative to control
# [18] = molecular target: Macrophage-stimulating protein receptor (Homo sapiens) (UniProt Q04912); test: Inhibition of MST1R (unknown origin) at 10 uM by radiometric assay relative to control
# [19] = molecular target: Platelet-derived growth factor receptor alpha (Homo sapiens) (UniProt P16234); test: Inhibition of PDGFRA (unknown origin) at 10 uM by radiometric assay relative to control
# [20] = molecular target: Platelet-derived growth factor receptor beta (Homo sapiens) (UniProt P09619); test: Inhibition of PDGFRB (unknown origin) at 10 uM by radiometric assay relative to control
# [21] = molecular target: Receptor-type tyrosine-protein kinase FLT3 (Homo sapiens) (UniProt P36888); test: Inhibition of human FLT3 at 10 uM by radiometric assay relative to control
# [22] = system: T1, Receptor-type tyrosine-protein kinase FLT3 (Homo sapiens), P36888 [D835Y]; test: Inhibition of human FLT3 D835Y mutant at 10 uM by radiometric assay relative to control
# T1 sequence (whole entry): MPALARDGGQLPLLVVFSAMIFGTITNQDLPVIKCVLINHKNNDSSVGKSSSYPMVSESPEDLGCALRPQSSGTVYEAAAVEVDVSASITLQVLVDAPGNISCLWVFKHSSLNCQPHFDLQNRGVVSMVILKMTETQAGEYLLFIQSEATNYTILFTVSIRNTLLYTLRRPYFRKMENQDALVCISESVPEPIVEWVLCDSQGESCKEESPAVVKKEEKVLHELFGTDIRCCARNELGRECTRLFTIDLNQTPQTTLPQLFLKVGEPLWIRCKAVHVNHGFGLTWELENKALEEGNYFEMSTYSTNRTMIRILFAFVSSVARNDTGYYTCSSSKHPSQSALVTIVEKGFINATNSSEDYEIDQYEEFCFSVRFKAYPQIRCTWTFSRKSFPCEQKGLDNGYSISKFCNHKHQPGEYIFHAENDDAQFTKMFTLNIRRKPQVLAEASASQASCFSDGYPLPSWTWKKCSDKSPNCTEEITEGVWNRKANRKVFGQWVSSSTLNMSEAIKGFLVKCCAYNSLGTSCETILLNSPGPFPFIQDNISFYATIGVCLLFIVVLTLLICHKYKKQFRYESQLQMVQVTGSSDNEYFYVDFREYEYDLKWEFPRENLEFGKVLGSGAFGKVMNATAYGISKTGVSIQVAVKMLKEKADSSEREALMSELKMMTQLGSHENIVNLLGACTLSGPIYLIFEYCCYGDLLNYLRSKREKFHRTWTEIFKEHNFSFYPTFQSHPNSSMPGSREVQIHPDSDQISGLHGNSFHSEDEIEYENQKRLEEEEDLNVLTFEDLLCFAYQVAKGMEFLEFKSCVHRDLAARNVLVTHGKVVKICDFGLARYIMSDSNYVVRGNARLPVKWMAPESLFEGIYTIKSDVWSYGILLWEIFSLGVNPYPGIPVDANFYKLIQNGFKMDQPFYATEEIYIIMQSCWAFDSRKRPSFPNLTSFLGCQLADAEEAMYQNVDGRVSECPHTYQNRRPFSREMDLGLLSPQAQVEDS
# [23] = molecular target: Receptor-type tyrosine-protein kinase FLT3 (Homo sapiens) (UniProt P36888); test: Inhibition of human FLT3 at 25 uM by radiometric assay relative to control
# [24] = system: T1, Receptor-type tyrosine-protein kinase FLT3 (Homo sapiens), P36888 [D835Y]; test: Inhibition of human FLT3 D835Y mutant at 25 uM by radiometric assay relative to control
# Mast/stem cell growth factor receptor Kit (Homo sapiens), sequence (P10721 whole entry): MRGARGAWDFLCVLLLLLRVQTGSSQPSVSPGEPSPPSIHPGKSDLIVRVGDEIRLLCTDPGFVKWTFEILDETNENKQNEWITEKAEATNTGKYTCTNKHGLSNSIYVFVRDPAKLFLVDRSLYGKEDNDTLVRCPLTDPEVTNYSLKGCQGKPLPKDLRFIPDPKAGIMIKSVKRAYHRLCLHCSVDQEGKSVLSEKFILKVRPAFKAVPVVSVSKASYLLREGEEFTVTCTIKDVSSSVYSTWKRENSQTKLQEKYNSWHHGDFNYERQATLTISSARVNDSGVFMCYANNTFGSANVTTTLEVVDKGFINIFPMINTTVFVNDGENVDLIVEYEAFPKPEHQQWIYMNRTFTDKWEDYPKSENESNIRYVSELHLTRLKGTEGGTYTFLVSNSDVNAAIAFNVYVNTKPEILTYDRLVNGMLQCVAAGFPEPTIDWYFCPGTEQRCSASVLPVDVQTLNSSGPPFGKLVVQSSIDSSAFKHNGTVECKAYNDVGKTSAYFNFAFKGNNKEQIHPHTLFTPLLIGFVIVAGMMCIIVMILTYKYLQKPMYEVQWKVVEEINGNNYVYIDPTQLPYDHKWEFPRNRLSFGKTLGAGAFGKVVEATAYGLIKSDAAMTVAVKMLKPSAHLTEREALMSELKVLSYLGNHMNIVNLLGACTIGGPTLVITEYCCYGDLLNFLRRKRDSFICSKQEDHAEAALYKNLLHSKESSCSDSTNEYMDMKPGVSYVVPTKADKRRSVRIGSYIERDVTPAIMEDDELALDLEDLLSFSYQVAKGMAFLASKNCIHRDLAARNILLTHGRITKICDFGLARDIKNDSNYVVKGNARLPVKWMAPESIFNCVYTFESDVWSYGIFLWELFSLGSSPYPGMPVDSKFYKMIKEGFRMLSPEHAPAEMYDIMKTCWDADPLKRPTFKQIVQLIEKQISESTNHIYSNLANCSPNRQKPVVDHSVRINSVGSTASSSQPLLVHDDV
# Macrophage-stimulating protein receptor (Homo sapiens), sequence (Q04912 25-304 limits assumed): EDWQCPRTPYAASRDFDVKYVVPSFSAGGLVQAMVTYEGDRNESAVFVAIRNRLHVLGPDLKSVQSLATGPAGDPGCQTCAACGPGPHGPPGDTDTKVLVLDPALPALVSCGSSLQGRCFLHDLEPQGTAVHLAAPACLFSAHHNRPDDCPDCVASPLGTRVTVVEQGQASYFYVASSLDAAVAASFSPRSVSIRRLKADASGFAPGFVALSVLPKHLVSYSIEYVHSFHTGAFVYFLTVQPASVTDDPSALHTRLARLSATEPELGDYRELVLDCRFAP
# Macrophage-stimulating protein receptor (Homo sapiens), sequence (Q04912 310-1400 limits assumed): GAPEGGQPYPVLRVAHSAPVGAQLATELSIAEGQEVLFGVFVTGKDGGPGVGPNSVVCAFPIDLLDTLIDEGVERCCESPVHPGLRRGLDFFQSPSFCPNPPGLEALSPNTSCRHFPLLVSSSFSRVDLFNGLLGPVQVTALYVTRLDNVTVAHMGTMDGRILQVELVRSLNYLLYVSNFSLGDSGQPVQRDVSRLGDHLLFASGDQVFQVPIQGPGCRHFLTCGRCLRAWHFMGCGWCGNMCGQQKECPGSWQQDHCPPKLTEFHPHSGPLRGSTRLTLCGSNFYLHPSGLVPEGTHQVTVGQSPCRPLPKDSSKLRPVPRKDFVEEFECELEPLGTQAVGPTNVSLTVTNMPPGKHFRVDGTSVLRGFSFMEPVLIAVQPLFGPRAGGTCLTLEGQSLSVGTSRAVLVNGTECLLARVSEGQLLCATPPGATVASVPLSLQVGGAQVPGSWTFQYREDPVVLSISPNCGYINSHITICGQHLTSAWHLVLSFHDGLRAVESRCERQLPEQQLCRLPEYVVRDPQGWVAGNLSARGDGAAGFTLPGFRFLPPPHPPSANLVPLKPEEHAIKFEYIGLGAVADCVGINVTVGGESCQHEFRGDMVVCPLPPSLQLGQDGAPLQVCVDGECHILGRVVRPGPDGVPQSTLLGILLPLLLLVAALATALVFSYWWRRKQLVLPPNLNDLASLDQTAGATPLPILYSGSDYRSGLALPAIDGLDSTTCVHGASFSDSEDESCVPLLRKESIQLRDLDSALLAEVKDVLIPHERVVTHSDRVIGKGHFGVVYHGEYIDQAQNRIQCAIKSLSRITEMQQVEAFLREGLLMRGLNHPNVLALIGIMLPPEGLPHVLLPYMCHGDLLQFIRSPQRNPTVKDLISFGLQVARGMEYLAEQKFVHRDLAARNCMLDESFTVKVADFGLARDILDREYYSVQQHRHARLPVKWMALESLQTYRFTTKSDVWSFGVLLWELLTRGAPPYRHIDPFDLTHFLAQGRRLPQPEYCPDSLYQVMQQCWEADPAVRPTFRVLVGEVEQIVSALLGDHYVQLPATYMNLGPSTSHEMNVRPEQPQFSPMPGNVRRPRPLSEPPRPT
# Hepatocyte growth factor receptor (Homo sapiens), sequence (P08581 whole entry): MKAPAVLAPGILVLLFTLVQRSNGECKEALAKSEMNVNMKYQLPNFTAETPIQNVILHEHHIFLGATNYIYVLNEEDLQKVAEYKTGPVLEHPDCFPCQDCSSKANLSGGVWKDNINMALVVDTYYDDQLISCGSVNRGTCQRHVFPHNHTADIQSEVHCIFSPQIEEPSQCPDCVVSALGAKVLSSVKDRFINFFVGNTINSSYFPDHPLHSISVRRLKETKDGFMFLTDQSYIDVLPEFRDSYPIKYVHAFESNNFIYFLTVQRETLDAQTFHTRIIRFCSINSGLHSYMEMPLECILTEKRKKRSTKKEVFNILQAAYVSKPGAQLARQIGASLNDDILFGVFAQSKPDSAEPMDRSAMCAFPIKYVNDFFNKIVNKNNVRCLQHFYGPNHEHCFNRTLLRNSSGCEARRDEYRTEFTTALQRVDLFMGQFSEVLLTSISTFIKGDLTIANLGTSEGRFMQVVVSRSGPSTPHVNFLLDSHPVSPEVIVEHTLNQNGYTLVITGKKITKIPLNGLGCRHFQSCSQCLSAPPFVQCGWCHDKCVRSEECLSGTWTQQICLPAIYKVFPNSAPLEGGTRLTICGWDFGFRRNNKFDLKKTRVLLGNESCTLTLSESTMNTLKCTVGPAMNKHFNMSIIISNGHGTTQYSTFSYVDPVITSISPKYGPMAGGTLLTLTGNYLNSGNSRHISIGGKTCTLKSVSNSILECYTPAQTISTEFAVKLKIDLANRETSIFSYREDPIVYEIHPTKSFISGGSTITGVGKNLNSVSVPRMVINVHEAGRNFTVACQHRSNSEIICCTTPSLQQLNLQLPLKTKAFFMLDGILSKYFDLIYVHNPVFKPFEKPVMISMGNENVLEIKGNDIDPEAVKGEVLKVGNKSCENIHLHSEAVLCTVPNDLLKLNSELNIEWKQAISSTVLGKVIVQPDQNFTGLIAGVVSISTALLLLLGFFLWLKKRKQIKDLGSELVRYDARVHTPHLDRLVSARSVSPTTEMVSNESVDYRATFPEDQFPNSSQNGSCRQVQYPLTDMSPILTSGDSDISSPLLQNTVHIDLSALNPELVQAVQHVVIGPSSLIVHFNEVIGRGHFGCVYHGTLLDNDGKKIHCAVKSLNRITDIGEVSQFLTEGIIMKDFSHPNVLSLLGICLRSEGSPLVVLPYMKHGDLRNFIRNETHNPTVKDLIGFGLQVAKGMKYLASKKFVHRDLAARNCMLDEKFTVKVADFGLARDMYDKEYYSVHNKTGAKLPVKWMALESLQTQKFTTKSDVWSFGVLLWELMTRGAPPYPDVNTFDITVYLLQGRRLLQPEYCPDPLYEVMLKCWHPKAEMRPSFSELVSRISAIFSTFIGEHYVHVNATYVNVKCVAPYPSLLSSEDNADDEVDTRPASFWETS
# Vascular endothelial growth factor receptor 2 (Homo sapiens), sequence (P35968 whole entry): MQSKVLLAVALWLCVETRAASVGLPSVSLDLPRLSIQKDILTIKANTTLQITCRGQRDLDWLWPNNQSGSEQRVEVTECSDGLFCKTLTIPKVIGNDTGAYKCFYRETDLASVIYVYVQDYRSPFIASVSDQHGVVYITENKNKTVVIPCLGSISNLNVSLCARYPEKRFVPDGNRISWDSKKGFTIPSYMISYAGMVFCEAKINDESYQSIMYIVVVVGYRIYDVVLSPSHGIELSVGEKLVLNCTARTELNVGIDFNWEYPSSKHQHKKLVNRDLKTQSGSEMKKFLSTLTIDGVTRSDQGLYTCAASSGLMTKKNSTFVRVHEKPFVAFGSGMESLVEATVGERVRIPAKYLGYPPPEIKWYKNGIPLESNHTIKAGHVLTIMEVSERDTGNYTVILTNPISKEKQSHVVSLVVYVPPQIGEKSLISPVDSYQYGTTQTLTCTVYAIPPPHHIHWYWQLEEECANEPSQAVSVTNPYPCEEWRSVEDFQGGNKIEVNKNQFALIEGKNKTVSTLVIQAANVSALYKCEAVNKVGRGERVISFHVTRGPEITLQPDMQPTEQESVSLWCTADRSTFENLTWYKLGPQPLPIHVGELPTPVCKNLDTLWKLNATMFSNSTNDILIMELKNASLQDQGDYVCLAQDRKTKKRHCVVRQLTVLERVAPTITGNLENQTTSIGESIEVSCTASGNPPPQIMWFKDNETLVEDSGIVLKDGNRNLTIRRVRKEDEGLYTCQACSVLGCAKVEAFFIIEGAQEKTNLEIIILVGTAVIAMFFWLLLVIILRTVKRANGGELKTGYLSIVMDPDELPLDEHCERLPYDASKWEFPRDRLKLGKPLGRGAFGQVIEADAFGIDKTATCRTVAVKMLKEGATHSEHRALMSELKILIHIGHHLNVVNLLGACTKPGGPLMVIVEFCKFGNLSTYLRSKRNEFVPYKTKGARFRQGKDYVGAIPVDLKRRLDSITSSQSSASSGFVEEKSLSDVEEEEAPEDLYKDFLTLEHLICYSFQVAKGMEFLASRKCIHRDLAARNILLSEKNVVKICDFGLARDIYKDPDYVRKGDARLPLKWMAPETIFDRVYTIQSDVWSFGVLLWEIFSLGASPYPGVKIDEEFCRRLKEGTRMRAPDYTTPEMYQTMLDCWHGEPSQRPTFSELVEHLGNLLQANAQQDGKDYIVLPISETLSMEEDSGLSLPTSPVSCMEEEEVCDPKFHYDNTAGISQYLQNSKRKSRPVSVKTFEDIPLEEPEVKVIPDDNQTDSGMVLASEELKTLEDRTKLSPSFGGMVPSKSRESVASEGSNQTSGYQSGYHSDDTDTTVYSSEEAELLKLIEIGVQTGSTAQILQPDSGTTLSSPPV
Compound,IC50 [1] [µM],IC50 [2] [µM],IC50 [3] [µM],IC50 [4] [µM],also measured
CCN1C(=O)C2(NC(=O)c3ccccc3N2)c2ccccc21 (centres undefined),> 100,> 100,28.5,50.4,
Cc1ccc(CN2C(=O)C3(NC(=O)c4ccccc4N3)c3ccccc32)cc1 (centres undefined),20.3,26.2,29.2,,
O=C1NC2(Nc3ccccc31)C(=O)N(Cc1ccc(Br)cc1)c1ccccc12 (centres undefined),38.7,39.7,71.9,19.9,
CC(C)(C)c1ccc(CN2C(=O)C3(NC(=O)c4cc(Br)cc(Br)c4N3)c3ccccc32)cc1 (centres undefined),19.6,45.5,> 100,> 100,
O=C1NC2(Nc3c(Br)cc(Br)cc31)C(=O)N(Cc1ccc(F)cc1)c1ccccc12 (centres undefined),34.6,45.4,> 100,> 100,
CCCCCN1C(=O)C2(NC(=O)c3ccccc3N2)c2ccccc21 (centres undefined),> 100,> 100,> 100,> 100,
CCCCCN1C(=O)C2(NC(=O)c3cc(Br)cc(Br)c3N2)c2ccccc21 (centres undefined),24.7,47.1,51.9,> 100,
O=C1NC2(Nc3c(Br)cc(Br)cc31)C(=O)N(Cc1ccc(Cl)c(Cl)c1)c1ccccc12 (centres undefined),19.8,> 100,24.3,> 100,
COc1cc2nccc(Oc3ccc(NC(=O)C4(C(=O)Nc5ccc(F)cc5)CC4)cc3)c2cc1OC [CABOZANTINIB],0.0592,16.2,3.7,1.9,
O=C1NC2(Nc3c(Br)cc(Br)cc31)C(=O)N(Cc1ccc(Cl)cc1)c1ccccc12 (centres undefined),10.4,26.9,12.5,13.8,Activity [5]: 1.04%; Activity [6]: 57.29%; Activity [7]: 17.89%; Activity [8]: 23.78%; Activity [9]: 1.41%; Activity [10]: 50.3%; Activity [11]: 21.06%; Activity [12]: 27.23%; inhibition [13]: 1%; inhibition [14]: 12%; inhibition [15]: -4%; inhibition [16]: -6%; inhibition [17]: 12%; inhibition [18]: 2%; inhibition [19]: 5%; inhibition [20]: -1%; inhibition [21]: 18%; inhibition [22]: 5%; inhibition [23]: 19%; inhibition [24]: -6%
